Test results published in ChEMBL document CHEMBL1201862, “PubChem BioAssay data set” (2004).
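Grown in 96-well plates, cells were treated for 48 hours with each compound at five concentrations. Insufficient inhibition: endpoint recorded as highest concentration tested. GI50 = concentration required for 50% inhibition of growth.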 The source made the active and inactive calls. Rule as the data show it: active = GI50 up to about 1.1 µM and inactive = higher.

Experiments:
Test in all cases: inhibition of tumour cell growth, NCI panel, 48 h
DLD-1 = system: DLD-1
DMS-114 = system: DMS-114
DMS-273 = system: DMS-273
HOP-18 = system: HOP-18
K562 = system: K562
KM-20L2 = system: KM-20L2
MCF7 = system: MCF7
NCI/ADR-RES = system: NCI/ADR-RES
RXF 393 = system: RXF 393
SF-268 = system: SF-268
SK-MEL-5 = system: SK-MEL-5
SN12C = system: SN12C
SNB-19 = system: SNB-19

Measured: GI50

CCOC(=O)NC(=O)c1cn(CCN(CCO)C(=O)NCCCCCCNC(=O)N(CCO)CCn2cc(C(=O)NC(=O)OCC)c(=O)[nH]c2=O)c(=O)[nH]c1=O
inactive: DLD-1 > 100 µM | DMS-114 > 100 µM | DMS-273 > 100 µM | HOP-18 > 100 µM | K562 > 100 µM | KM-20L2 > 100 µM | MCF7 > 100 µM | NCI/ADR-RES > 100 µM | RXF 393 > 100 µM | SF-268 > 100 µM | SK-MEL-5 > 100 µM | SN12C > 100 µM | SNB-19 > 100 µM

O=C1CNC(=O)N1 [HYDANTOIN]
inactive: DLD-1 > 1120 µM | DMS-114 > 1120 µM | DMS-273 > 1120 µM | HOP-18 > 1120 µM | K562 706 µM | KM-20L2 > 1120 µM | MCF7 > 1120 µM | NCI/ADR-RES > 1120 µM | RXF 393 > 1120 µM | SF-268 > 1120 µM | SK-MEL-5 > 1120 µM | SN12C > 1120 µM | SNB-19 > 1120 µM
